Data as given in patent publication US20030212052A1, “Use of ursdeoxycholic acid for potentiation of the phototoxic effect of photodynamic therapy” (priority 2003, published 2003).

Key:
[1] = test system: hepatoma cell line; assay: Promotion of PDT efficacy with lysosomal sensitizer in the hepatoma cell line; format: cell-based, murine; conditions: lysosomal sensitizer Npe6, hepatoma cell line
Procedure: Cell lines. Studies have been carried out with the murine leukemia L1210 and murine hepatoma hepa 1c1c7 cell lines along with primary rat hepatocyte cultures. Except for the latter, cells are grown in tissue culture. The L1210 cell line is grown in suspension culture in Fischer's medium containing 10% horse serum. The murine hepatoma 1c1c7 cell line was obtained from Dr. J. Whitlock, Jr. (Stanford University, CA). Cells were cultured on either commercially available plastic tissue cutureware, or poly-L-lysine coated glass coverslips or discs, and grown at 37° C. in a-minimal essential medium (aMEM) containing 5% fetal bovine serum and antibiotics. Cultures were passaged by incubation with a trypsin+EDTA solution (0.25% trypsin, 1 mM EDTA in Hank's Balanced Salts Solution). Determination of PDT efficacy. […] The cells were then lysed and levels of caspase-3 activity are assessed using a fluorescent plate reader. […] These substrates were cleaved by caspase-3 to form fluorescent products that were then detected. The plate readers take periodic readings of the emerging fluorescence, permitting a rate to be assessed. […] Protein levels in the lysates were also determined, so that the net result was in terms of caspase-3 activity per mg protein per minute. Photokilling was assessed by clonogenic assays involving the plating of known numbers of cells. […]

[2] = test system: murine hepatoma 1c1c7 cell line; assay: Photokilling assessed by clonogenic assay after SnET2 PDT; format: cell-based; conditions: for number of colonies: irradiation 270 mJ/cm^2 at 630-700 nm, colonies counted four days later, mean±SD of 3-4 plates
Procedure: Cell lines. Studies have been carried out with the murine leukemia L1210 and murine hepatoma hepa 1c1c7 cell lines along with primary rat hepatocyte cultures. Except for the latter, cells are grown in tissue culture. The L1210 cell line is grown in suspension culture in Fischer's medium containing 10% horse serum. The murine hepatoma 1c1c7 cell line was obtained from Dr. J. Whitlock, Jr. (Stanford University, CA). Cells were cultured on either commercially available plastic tissue cutureware, or poly-L-lysine coated glass coverslips or discs, and grown at 37° C. in a-minimal essential medium (aMEM) containing 5% fetal bovine serum and antibiotics. Cultures were passaged by incubation with a trypsin+EDTA solution (0.25% trypsin, 1 mM EDTA in Hank's Balanced Salts Solution). Photokilling was assessed by clonogenic assays involving the plating of known numbers of cells. After several days in cell culture, the number of resulting colonies reflected the number of viable cells that survive PDT. Freshly prepared suspensions of 1c1c7 cells were plated in 60 mm culture dishes at a density of 500 cells/dish. Approximately 18 hours later cultures were treated with PDT sensitizer and/or UDCA. After 30 minutes of incubation culture dishes were washed once with complete medium and then refed with complete medium. Refed cultures were subsequently irradiated and returned to incubators. Cultures were refed every third day, and stained with crystal violet once colonies were of sufficient size to score. […] After irradiation of 270 mJ/cm^2 at 630-700 nm, the plates were incubated and the colonies were counted four days later. The data represents the mean±a standard deviation of three to four plates.

[3] = cited from earlier work
[4] = cited from earlier work; remark: listed apart in the source
[5] = UDCA analogs/conjugates

SMILES: C=Cc1c(C)c2cc3nc(c(CC(=O)N[C@@H](CC(=O)[O-])C(=O)[O-])c4nc(cc5[nH]c(cc1[nH]2)c(C)c5CC)C(C)=C4C(=O)[O-])[C@@H](CCC(=O)[O-])[C@@H]3C.[Na+].[Na+].[Na+].[Na+] [Npe6]
- promotion of photodynamic therapy efficacy by the potentiator [1]: no evidence of promotion

SMILES: C[C@H](CCC(=O)O)[C@H]1CC[C@H]2[C@@H]3[C@@H](O)C[C@@H]4C[C@H](O)CC[C@]4(C)[C@H]3CC[C@]12C [UDCA, ursodeoxycholic acid]
- number of colonies ([2]; UDCA 10 micromoles + SnET2 (2-mM)): 12±5 colonies
- colonies as percent ([2]; UDCA 10 micromoles + SnET2 PDT): 20%
- number of colonies ([2]; UDCA 100 micromoles + SnET2 (2-mM)): 1±0.7 colonies
- colonies as percent ([2]; UDCA 100 micromoles + SnET2 PDT): 1.3%
- solubility in chloraform ([3]; chloraform): slightly soluble
- solubility in ethanol and glacial acetic acid ([3]; ethanol and glacial acetic acid): freely soluble
- solubility in ether ([3]; ether): sparingly soluble
- solubility in water ([3]; water): practically insoluble
- hepatic extraction ([4]; once absorbed after oral administration, absence of liver disease): about 50%
- absorption after oral administration ([4]; oral administration, passive diffusion): incomplete

SMILES: C[C@H](CCC(=O)NCC(=O)O)[C@H]1CC[C@H]2[C@@H]3[C@@H](O)C[C@@H]4C[C@H](O)CC[C@]4(C)[C@H]3CC[C@]12C [UDCA-glycine]
- promotion of photodynamic therapeutic photokilling [5]: effective

SMILES: C[C@H](CCC(=O)NCCS(=O)(=O)O)[C@H]1CC[C@H]2[C@@H]3[C@@H](O)C[C@@H]4C[C@H](O)CC[C@]4(C)[C@H]3CC[C@]12C [UDCA-taurine]
- promotion of photodynamic therapeutic photokilling [5]: effective
